According to patent US12643910B2, “Substituted pyrazolo[3,4-b]pyridines as ectonucleotide pyrophosphatase/phosphodiesterase 1 (ENPP1) modulators” (SANFORD BURNHAM PREBYS MEDICAL DISCOVERY INSTITUTE, priority 2019, dated 2026):

Key:
ENPP3 = target: T1, ENPP3 (Homo sapiens, UniProt O14638); assay: ENPP3 Km ATP assay; assay type: biochemical; settings: ATP at Km
T1 sequence (O14638 1-875): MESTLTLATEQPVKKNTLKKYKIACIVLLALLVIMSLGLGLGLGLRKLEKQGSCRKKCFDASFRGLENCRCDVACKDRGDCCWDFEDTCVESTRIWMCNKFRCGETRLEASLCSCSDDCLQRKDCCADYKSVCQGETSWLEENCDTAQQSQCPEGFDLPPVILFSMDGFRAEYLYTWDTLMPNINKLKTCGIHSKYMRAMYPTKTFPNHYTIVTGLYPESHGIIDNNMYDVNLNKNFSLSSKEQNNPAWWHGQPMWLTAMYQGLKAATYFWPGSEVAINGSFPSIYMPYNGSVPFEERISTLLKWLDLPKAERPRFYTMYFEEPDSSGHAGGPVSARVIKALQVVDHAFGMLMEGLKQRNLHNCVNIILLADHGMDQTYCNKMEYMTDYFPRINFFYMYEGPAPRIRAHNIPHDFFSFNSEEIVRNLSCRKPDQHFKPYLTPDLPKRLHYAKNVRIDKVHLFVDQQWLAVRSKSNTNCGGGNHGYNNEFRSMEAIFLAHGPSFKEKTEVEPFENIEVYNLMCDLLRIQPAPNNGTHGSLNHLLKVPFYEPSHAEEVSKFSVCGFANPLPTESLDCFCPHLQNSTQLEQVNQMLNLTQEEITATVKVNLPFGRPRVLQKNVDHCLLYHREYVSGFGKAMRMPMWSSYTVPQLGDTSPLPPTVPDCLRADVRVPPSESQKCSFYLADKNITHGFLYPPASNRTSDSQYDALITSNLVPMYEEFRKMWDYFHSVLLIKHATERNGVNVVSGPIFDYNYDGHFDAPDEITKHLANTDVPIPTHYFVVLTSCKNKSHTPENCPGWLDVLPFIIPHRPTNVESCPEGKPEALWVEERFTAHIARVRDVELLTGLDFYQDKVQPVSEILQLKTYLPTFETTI

human ENPP1 = target: T2, human ENPP1 (Homo sapiens, UniProt P22413); assay: ENPP1 assay with ATP substrate (Transcreener AMP2/GMP2 TR-FRET); assay type: biochemical; settings: 1 hour at room temperature
T2 construct: made in house
T2 sequence (P22413 1-925): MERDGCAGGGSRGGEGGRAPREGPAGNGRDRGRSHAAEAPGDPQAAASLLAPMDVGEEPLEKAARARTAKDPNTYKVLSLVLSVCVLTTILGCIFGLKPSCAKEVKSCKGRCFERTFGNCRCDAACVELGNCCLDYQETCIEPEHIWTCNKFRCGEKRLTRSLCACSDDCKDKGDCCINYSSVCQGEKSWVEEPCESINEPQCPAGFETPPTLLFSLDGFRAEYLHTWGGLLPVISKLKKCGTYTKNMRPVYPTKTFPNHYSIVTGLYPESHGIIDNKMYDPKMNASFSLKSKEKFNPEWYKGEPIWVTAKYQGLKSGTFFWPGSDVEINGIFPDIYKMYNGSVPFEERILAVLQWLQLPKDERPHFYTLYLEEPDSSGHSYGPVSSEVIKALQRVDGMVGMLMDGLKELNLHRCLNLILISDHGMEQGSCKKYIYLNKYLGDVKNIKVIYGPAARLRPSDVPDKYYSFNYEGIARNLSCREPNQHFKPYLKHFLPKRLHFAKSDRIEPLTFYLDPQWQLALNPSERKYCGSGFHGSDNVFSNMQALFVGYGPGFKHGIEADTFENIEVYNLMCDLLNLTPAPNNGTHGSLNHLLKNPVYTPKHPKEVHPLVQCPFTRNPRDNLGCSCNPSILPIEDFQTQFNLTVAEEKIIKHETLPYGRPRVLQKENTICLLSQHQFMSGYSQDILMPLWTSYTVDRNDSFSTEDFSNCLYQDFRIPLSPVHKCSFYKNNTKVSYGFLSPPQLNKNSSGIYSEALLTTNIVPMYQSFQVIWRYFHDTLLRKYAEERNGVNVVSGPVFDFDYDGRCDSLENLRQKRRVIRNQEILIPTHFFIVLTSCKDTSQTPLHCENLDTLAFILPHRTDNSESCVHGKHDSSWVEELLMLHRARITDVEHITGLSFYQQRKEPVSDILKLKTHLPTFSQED
In short: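 Reaction ran 1 h at room temperature in pH 7.5 Tris with MgCl2, TCEP, Tween 20 and 1% DMSO. ATP was added as a 300 nM stock and enzyme as an 8.5 μM stock. After EDTA stop, AMP was read by TR-FRET tracer displacement. Percent inhibition used enzyme/no-enzyme controls; IC50 was fitted with a variable slope.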

| SMILES | IC50 (ENPP3) | IC50 (human ENPP1) |
| --- | --- | --- |
| Cn1ncc2c(NCc3ccc(S(N)(=O)=O)c(F)c3)ncnc21 [Example 2.1, 2-Fluoro-4-(((1-methyl-1H-pyrazolo[3,4-d]pyrimidin-4-yl)amino)methyl)-benzenesulfonamide] | 1 to 20 µM | < 0.1 µM |
| Cc1noc2ncnc(N3CCC(NCCCc4ccc(F)cc4)CC3)c12 [Example 2.57, N-(3-(4-Fluorophenyl)propyl)-1-(3-methylisoxazolo[5,4-d]pyrimidin-4-yl)piperidin-4-amine] | > 20 µM | > 20 µM |
